Measured values taken from the NIST ThermoML archive (doi:10.1021/je9004992).

Experiment: molar heat capacity at constant pressure
Conditions: Liquid, Small sample (50 mg) DSC

CCCCn1cc[n+](C)c1.F[B-](F)(F)F [1-butyl-3-methylimidazolium tetrafluoroborate]
molar heat capacity at constant pressure [J/K/mol]
Conditions	283.15 K	288.15 K	293.15 K	298.15 K	303.15 K	308.15 K	313.15 K	318.15 K	323.15 K
100 kPa	360.25	362.17	364.16	366.2	368.3	370.45	372.67	374.95	377.29
2000 kPa	360.28	362.2	364.17	366.21	368.31	370.47	372.69	374.97	377.31
4000 kPa	360.31	362.22	364.19	366.23	368.33	370.49	372.71	374.99	377.34
6000 kPa	360.34	362.24	364.21	366.25	368.34	370.5	372.73	375.01	377.36
8000 kPa	360.37	362.27	364.23	366.26	368.36	370.52	372.74	375.03	377.39
10000 kPa	360.39	362.29	364.25	366.28	368.37	370.53	372.76	375.05	377.41
12000 kPa	360.42	362.31	364.27	366.3	368.39	370.55	372.78	375.08	377.44
14000 kPa	360.45	362.34	364.29	366.31	368.4	370.57	372.8	375.1	377.47
20000 kPa	360.54	362.4	364.35	366.36	368.45	370.61	372.85	375.16	377.54
30000 kPa	360.68	362.52	364.44	366.45	368.53	370.69	372.94	375.26	377.67
40000 kPa	360.82	362.64	364.54	366.53	368.61	370.77	373.03	375.37	377.8
50000 kPa	360.96	362.75	364.64	366.61	368.69	370.85	373.12	375.47	377.93
60000 kPa	361.11	362.87	364.73	366.7	368.77	370.93	373.21	375.58	378.05

CCn1cc[n+](C)c1.F[B-](F)(F)F [1-ethyl-3-methylimidazolium tetrafluoroborate]
molar heat capacity at constant pressure [J/K/mol]
Conditions	283.15 K	288.15 K	293.15 K	298.15 K	303.15 K	308.15 K	313.15 K	318.15 K	323.15 K
100 kPa	300.19	301.67	303.23	304.87	306.58	308.36	310.23	312.17	314.18
2000 kPa	300.22	301.7	303.26	304.9	306.61	308.4	310.26	312.2	314.21
4000 kPa	300.24	301.73	303.29	304.93	306.64	308.43	310.29	312.23	314.24
6000 kPa	300.27	301.76	303.32	304.96	306.67	308.46	310.32	312.26	314.27
8000 kPa	300.3	301.79	303.35	304.99	306.7	308.49	310.35	312.29	314.3
10000 kPa	300.33	301.82	303.38	305.02	306.73	308.52	310.38	312.32	314.33
12000 kPa	300.35	301.85	303.41	305.05	306.77	308.55	310.42	312.35	314.36
14000 kPa	300.38	301.87	303.44	305.08	306.8	308.59	310.45	312.38	314.39
20000 kPa	300.46	301.96	303.53	305.18	306.89	308.68	310.54	312.47	314.48
30000 kPa	300.6	302.1	303.68	305.33	307.05	308.84	310.7	312.63	314.63
40000 kPa	300.73	302.25	303.83	305.49	307.21	309	310.86	312.79	314.78
50000 kPa	300.87	302.39	303.98	305.64	307.37	309.16	311.02	312.94	314.93
60000 kPa	301	302.54	304.13	305.8	307.52	309.32	311.17	313.1	315.08

CCCCCCn1cc[n+](C)c1.F[B-](F)(F)F [1-hexyl-3-methylimidazolium tetrafluoroborate]
molar heat capacity at constant pressure [J/K/mol]
Conditions	283.15 K	288.15 K	293.15 K	298.15 K	303.15 K	308.15 K	313.15 K	318.15 K	323.15 K
100 kPa	422.77	425	427.34	429.8	432.36	435.03	437.81	440.7	443.69
2000 kPa	422.81	425.04	427.38	429.83	432.39	435.06	437.84	440.72	443.72
4000 kPa	422.85	425.08	427.42	429.87	432.43	435.1	437.87	440.75	443.74
6000 kPa	422.89	425.12	427.46	429.91	432.47	435.13	437.9	440.78	443.77
8000 kPa	422.94	425.17	427.5	429.95	432.5	435.17	437.93	440.81	443.8
10000 kPa	422.98	425.21	427.54	429.99	432.54	435.2	437.97	440.84	443.82
12000 kPa	423.02	425.25	427.59	430.03	432.58	435.23	438	440.87	443.85
14000 kPa	423.07	425.29	427.63	430.07	432.61	435.27	438.03	440.9	443.88
20000 kPa	423.2	425.42	427.75	430.18	432.72	435.37	438.13	440.99	443.96
30000 kPa	423.41	425.63	427.95	430.38	432.91	435.55	438.29	441.14	444.09
40000 kPa	423.63	425.84	428.15	430.57	433.09	435.72	438.45	441.28	444.22
50000 kPa	423.85	426.05	428.36	430.77	433.28	435.89	438.61	441.43	444.35
60000 kPa	424.07	426.26	428.56	430.96	433.46	436.07	438.77	441.58	444.49
